Results reported in patent publication US20100004243A1, “PHARMACEUTICAL COMPOUNDS” (Astex Therapeutics Limited, priority 2006, published 2010).

Columns and labels:
[1] = target: T1, CDK4/CyclinD1 (Homo sapiens, UniProt P11802); assay: CDK4 kinase inhibitory activity assay (IC50); format: biochemical; details: read-out: IC50 against CDK4
T1 construct: purchased Proqinase
Method: Assays for CDK4 inhibitory activity can be carried out using the proprietary 33 PanQinase® Activity Assay of Proqinase GmbH, Freiburg, Germany. The assays are performed in 96 well FlashPlates™ (PerkinElmer). In each case, the reaction cocktail (50 μl final volume) is composed of; 20 μl assay buffer (final composition 60 mM HEPES-NaOH, pH 7.5, 3 mM MgCl2, 3 μM Na-orthovanadate, 1.2 mM DTT, 50 μg/ml PEG2000, 5 μl ATP solution (final concentration 1 μM [γ-33P]-ATP (approx 5×10^5 cpm per well)), 5 μl test compound (in 10% DMSO), 10 μl substrate/10 μl enzyme solution (premixed). The final amounts of enzyme and substrate are as below.
The reaction cocktail is incubated at 30° C. for 80 minutes. The reaction is stopped with 50 μl of 2% H3PO4, plates are aspirated and washed twice with 200 μl 0.9% NaCl. Incorporation of ^33P is determined with a microplate scintillation counter. Background values are subtracted from the data before calculating the residual activities for each well. IC50s are calculated using Prism 3.03.
Compounds of the invention can be tested for kinase inhibitory activity using the following protocol.
CDK4/CyclinD1 (Proqinase) is diluted to 12.5 nM in 5 mM Tris pH 7.5, 2.5 mM MgCl2, 25 μM EDTA, 2.5 m M DTT and 125 μM ATP. 10 μl of the enzyme solution is mixed with 10 μl of 100 μl biotin -KAPLSPKKAK4 (Altabioscience, 1 mM stock—10 mg in 2,250 μl H20), 900 μl H2O, 1 μl 10% triton and 35 μCi γ^33P-ATP) and added to 96 well plates along with 5 μl of various dilutions of the test compound in DMSO (up to 4%). The reaction is allowed to proceed for 2 hours before being stopped with an excess of ortho-phosphoric acid (20 μl at 2%).
γ^33P-ATP which remains unincorporated into the biotin -KAPLSPKKAK4 is separated from phosphorylated biotin -KAPLSPKKAK4 on a Millipore MAPH filter plate. The wells of the MAPH plate are wetted with 0.5% orthophosphoric acid, and then the results of the reaction are filtered with a Millipore vacuum filtration unit through the wells. Following filtration, the residue is washed twice with 200 μl of 0.5% orthophosphoric acid. Once the filters have dried, 20 μl of Microscint 20 scintillant is added, and then counted on a Packard Topcount for 30 seconds.
The % inhibition of the CDK4 activity is calculated and plotted in order to determine the concentration of test compound required to inhibit 50% of the CDK4 activity (IC50).

[2] = target: CDK2/CyclinA (Homo sapiens, UniProt P24941); assay: Activated CDK2/CyclinA kinase inhibitory activity assay, compared with CDK4; format: biochemical
Method: Compounds of the invention were tested for kinase inhibitory activity using the following protocol.
Activated CDK2/CyclinA (Brown et al, Nat. Cell Biol., 1, pp 438-443, 1999; Lowe, E. D., et al Biochemistry, 41, pp 15625-15634, 2002) is diluted to 125 pM in 2.5× strength assay buffer (50 mM MOPS pH 7.2, 62.5 mM β-glycerophosphate, 12.5 mM EDTA, 37.5 mM MgCl2, […], 2.5 mM DTT, 2.5 mM sodium orthovanadate, 0.25 mg/ml bovine serum albumin), and 10 μl mixed with 10 μl of histone substrate mix (60 μl bovine histone Hi (Upstate Biotechnology, 5 mg/ml), 940 μl H2O, 35 μCi γ^33P-ATP) and added to 96 well plates along with 5 μl of various dilutions of the test compound in DMSO (up to 2.5%). The reaction is allowed to proceed for 2 to 4 hours before being stopped with an excess of orthophosphoric acid (5 μl at 2%). γ^33P-ATP which remains unincorporated into the histone H1 is separated from phosphorylated histone H1 on a Millipore MAPH filter plate. The wells of the MAPH plate are wetted with 0.5% orthophosphoric acid, and then the results of the reaction are filtered with a Millipore vacuum filtration unit through the wells. Following filtration, the residue is washed twice with 200 μl of 0.5% orthophosphoric acid. Once the filters have dried, 20 μl of Microscint 20 scintillant is added, and then counted on a Packard Topcount for 30 seconds.
The % inhibition of the CDK2 activity is calculated and plotted in order to determine the concentration of test compound required to inhibit 50% of the CDK2 activity (IC50).

T1 sequence (P11802 whole entry): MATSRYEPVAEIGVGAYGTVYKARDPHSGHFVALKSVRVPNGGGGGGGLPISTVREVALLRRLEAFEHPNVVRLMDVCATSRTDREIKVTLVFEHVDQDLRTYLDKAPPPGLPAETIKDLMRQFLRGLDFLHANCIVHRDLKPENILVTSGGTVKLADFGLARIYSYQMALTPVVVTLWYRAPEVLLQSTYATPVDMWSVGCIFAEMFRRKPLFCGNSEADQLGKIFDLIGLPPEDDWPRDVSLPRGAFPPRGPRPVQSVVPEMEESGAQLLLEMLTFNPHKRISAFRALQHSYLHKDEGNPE
T1 sequence (P24385 whole entry partner): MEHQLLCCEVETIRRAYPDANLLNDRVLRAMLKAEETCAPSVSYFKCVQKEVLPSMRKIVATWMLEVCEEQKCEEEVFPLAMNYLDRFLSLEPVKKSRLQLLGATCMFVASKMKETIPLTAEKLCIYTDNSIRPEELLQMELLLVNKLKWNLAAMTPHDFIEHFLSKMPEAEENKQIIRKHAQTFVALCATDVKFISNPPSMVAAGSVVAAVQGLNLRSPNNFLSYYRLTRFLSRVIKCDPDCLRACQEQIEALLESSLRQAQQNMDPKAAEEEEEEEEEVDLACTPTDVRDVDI

SMILES | IC50 [1] | selectivity for CDK4 relative to CDK2 (in words) [2]
O=C(Nc1nnc(CCN2CCCCC2)s1)c1n[nH]cc1NC(=O)c1c(F)cccc1F [Example 1] | < 5000 nM | 
O=C(Nc1ccc(N2CCNCC2)cn1)c1n[nH]cc1NC(=O)c1c(Cl)cccc1Cl [Example 7] | < 100 nM | selective for CDK4 relative to CDK2
CN(C)C1CCN(c2ccc(NC(=O)c3n[nH]cc3NC(=O)c3c(F)cccc3F)nc2)CC1 [Example 8] | < 100 nM | selective for CDK4 relative to CDK2
CN(C)C1CCN(c2ccc(NC(=O)c3n[nH]cc3NC(=O)c3c(F)cccc3F)cc2)CC1 [Example 9] | < 100 nM | selective for CDK4 relative to CDK2
O=C(Nc1ccc(N2CCNCC2)cn1)c1n[nH]cc1NC(=O)c1c(F)cccc1F [Example 10] | < 100 nM | selective for CDK4 relative to CDK2
